Experimental data as given in patent US20250262209A1, “TREATMENT OF GASTROINTESTINAL DISEASES” (Aclipse Two, Inc., priority 2022, published 2025).

Assays:
Format in all cases: cell-based, human
[1] = test system: monocytes from PBMC differentiated into M2 macrophage; assay: M2 macrophage differentiation assay; conditions: CD163, CD11c, CD206; donor 1 and 2
Description: The purpose of this study was to evaluate the effects of lobeglitazone and other thiazolidinediones on M2 macrophage differentiation. The test articles and vehicles used in this study were lobeglitazone sulfate, pioglitazone HCl, and rosiglitazone.
M2 macrophage differentiation assay timeline was as follows in Table 10.
• (1) Isolate monocytes from PBMC using StemCell® monocyte isolation kit • (2) Count cell and adjust the cell density to 0.5×10^6 cells/ml with fresh complete differentiation medium. Add 5 μL M-CSF stock ([…]) to each 5 ml cell mixture. • (3) Seed isolated monocyte 100 μL per well on 96-well plate. • (4) Add test articles as the plate map using D300e (final concentration in μM). • (5) Differentiate the monocyte to macrophage in the presence of M-CSF to […] for 4 days. • (6) On day 4, add additional medium containing M-CSF. • (7) Add test compounds using D300e (final volume=[…]). • (8) On day 6, add IL-4 at 5× final concentration (IL-4 stock 0.1 mg/ml: dilute 10 μl stock into 10 ml medium for 100 ng/ml. Add 50 μl 100 ng/ml IL-4 to each well containing 200 μL medium to reach 20 ng/ml). • (9) On day 8, spin down the plates at 300×g for 5 min and collect the supernatant for cytokine quantification using MSD. • (10) M2 associated macrophage cytokines of interest are listed below in Table 12.
• (11) Collect cells for flow analysis of viability/CD11c/CD163/CD206.
Flow cytometry and surface marker CD163, CD11c, and CD206 were applied to characterize M2 repolarization. No stain and all stain with surface marker antibody to confirm the optimization of gating strategy.

[2] = test system: monocytes differentiated to M1 macrophage; assay: M1 macrophage differentiation assay; conditions: TNF-α, IL-1b, IL-6, IL-12, IL-23 in supernatant on day 7 (MSD); concentrations of Table 9
Description: The purpose of this study was to evaluate the effects of lobeglitazone and other thiazolidinediones on M1 macrophage differentiation. The test articles and vehicles used in this study were lobeglitazone sulfate, pioglitazone HCl, and rosiglitazone.
M1 macrophage differentiation assay timeline was as follows in Table 8.
Drug concentrations tested in the M1 differentiation assay are as in Table 9.
• (1) Revive frozen monocytes. • (2) Count cells and adjust the cell density to 0.5×10^6 cells/ml with fresh complete differentiation medium (RPMI1640+10% FBS+1% PS plus GM-CSF or M-CSF at 50 ng/ml). • (3) Seed isolated monocyte 100 μL per well on 96-well plate. • (4) Add test articles as the plate map using D300e (final concentration in μM). • (5) Differentiate the monocyte to macrophage in the presence of GM-CSF to M1, or M-CSF to M2 for 5 days. • (6) On day 5, add cytokines at 2× final concentration. • (6a) Prepare medium containing GM-CSF for M1 and M-CSF for M2. • (6b) Add corresponding activator to reach 2× final working concentration: (i) IFNγ stock 0.2 mg/ml: add 2.5 μL stock into 5 ml complete differentiation medium for 100 ng/ml; (ii) LPS stock 1.0 mg/ml: dilute to 20 μg/ml by mixing 2 μL stock into 100 μl medium; then add 10 μl 20 μg/ml LPS to 5 ml complete differentiation medium for 40 ng/ml; (iii) IL-4 stock 0.1 mg/ml: dilute 2 μL stock into 5 ml complete differentiation medium for 40 ng/ml. • (6c) Add 100 μL cytokine containing differentiating medium to each well, and total volume of each well is 200 μL. • (6d) Add test compound again using D300e. Make sure to set the final volume as 200 μL. • (7) Incubate cytokine and test compound for 48 hours. • (8) On day 7, spin down the plates at 300×g for 5 min and collect the supernatant for cytokine quantification using MSD. • (9) M1 associated macrophage cytokines TNF-α, IL-1b, IL-6, IL-12, and IL-23 were quantified.

[3] = test system: monocytes from PBMC, M1-to-M2 macrophage repolarization; assay: M1-to-M2 macrophage repolarization assay; conditions: cytokine analysis (MSD), day 14 supernatant
Description: The purpose of this study was to evaluate the effects of lobeglitazone and other thiazolidinediones on M1-to-M2 macrophage repolarization. The test articles and vehicles used in this study were lobeglitazone sulfate, pioglitazone HCl, and rosiglitazone.
M1-to-M2 macrophage repolarization assay timeline were as follows in Table 13.
Drug concentrations tested in the M1 differentiation assay are as in Table 14.
• (1) Isolate monocytes from PBMC using StemCell® monocyte isolation kit. • (2) Count cell and adjust the cell density to 0.5×10^6 cells/ml with fresh complete differentiation medium (add 10 μl M-CSF stock (100 μg/ml) 10 ml cell mixture to a final concentration of 50 ng/ml). • (3) Seed isolated monocyte 100 μL per well on 96-well plate. • (4) On day 4, add additional 100 μl medium containing M-CSF • (5) On day 6, add stimulator at 5× final concentration (200 μL medium in each well) to a final concentration of 50 ng/ml. • (6) On day 8, remove medium and replenish with 200 μL cytokine free medium, then add test compound (final concentration in μM) and incubate for 4 days. • (7) On day 12, add IL-4 and incubate for 2 days (add 50 μL of 100 ng/ml IL-4 to each well containing 200 μL medium to reach 20 ng/ml). • (8) On day 14, spin down the plates at 300×g for 5 min and collect the supernatant for cytokine quantification. • (9) M1 and M2 associated macrophage cytokines of interest are as follows in Table 15.
The cells are then collected for flow analysis of viability/CD11c/CD163/CD206.
Cell surface marker CD163, CD11c, and CD206 were applied to characterize M2 repolarization via flow cytometry. Controls included No stain and staining with all surface marker antibodies to confirm the optimization of gating strategy.

| SMILES | concentration at which M2 repolarization was promoted (M2 macrophage surface markers, flow cytometry) [1] [µM] | M1 macrophage cytokines expression [2] | concentration showing remarkable promotion of MDC expression [3] [µM] |
| --- | --- | --- | --- |
| CCc1ccc(CCOc2ccc(CC3SC(=O)NC3=O)cc2)nc1.Cl (racemic) [pioglitazone, (±)-5-[p-[2-(5-Ethyl-2-pyridyl)ethoxy]benzyl]-2,4-thiazolidinedione monohydrochloride] | ~10 | promoted the M1 macrophage cytokines in a dose-dependent manner | 5 |
| CN(CCOc1ccc(CC2SC(=O)NC2=O)cc1)c1ccccn1 (racemic) [rosiglitazone, (RS)-5-[4-(2-[methyl(pyridin-2-yl)amino]ethoxy)benzyl]thiazolidine-2,4-dione] | ~0.4 | promoted the M1 macrophage cytokines in a dose-dependent manner | 6.4 |
